Data reported in patent publication US12077503B2, “Substituted cyclic amides and their use as herbicides” (FMC CORPORATION, priority 2015, dated 2024).

What was measured:
Format in all cases: in vivo
[1] = system: Kochia (Kochia scoparia); assay: Test A preemergence
Summary of the method: (§1)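 Preemergence directed soil spray on seeded pots, or postemergence application to plants 2–10 cm, one- to two-leaf. Solvent mixture non-phytotoxic, with surfactant. Scored ~10 d later, visually, 0–100 vs untreated.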

[2] = system: barnyardgrass (Echinochloa crus-galli); assay: Test A preemergence
Summary of the method: as §1

[3] = system: giant foxtail (Setaria faberii); assay: Test A preemergence
Summary of the method: as §1

[4] = system: pigweed (Amaranthus retroflexus); assay: Test A preemergence
[5] = system: ragweed (common ragweed, Ambrosia elatior); assay: Test A preemergence
Summary of the method: as §1

[6] = system: ryegrass, Italian (Italian ryegrass, Lolium multiflorum); assay: Test A preemergence
Summary of the method: as §1

[7] = system: Galium (catchweed bedstraw, Galium aparine); assay: Test A postemergence
Summary of the method: as §1

[8] = system: Kochia (Kochia scoparia); assay: Test A postemergence
Summary of the method: as §1

[9] = system: barnyardgrass (Echinochloa crus-galli); assay: Test A postemergence
Summary of the method: as §1

[10] = system: blackgrass (Alopecurus myosuroides); assay: Test A postemergence
Summary of the method: as §1

[11] = system: corn (Zea mays); assay: Test A postemergence
Summary of the method: as §1

[12] = system: giant foxtail (Setaria faberii); assay: Test A postemergence
Summary of the method: as §1

[13] = system: pigweed (Amaranthus retroflexus); assay: Test A postemergence
Summary of the method: as §1

[14] = system: ragweed (common ragweed, Ambrosia elatior); assay: Test A postemergence
Summary of the method: as §1

[15] = system: ryegrass, Italian (Italian ryegrass, Lolium multiflorum); assay: Test A postemergence
Summary of the method: as §1

[16] = system: wheat (Triticum aestivum); assay: Test A postemergence
Summary of the method: as §1

[17] = system: barnyardgrass (Echinochloa crus-galli); assay: Test B flooded paddy test; conditions: Flood, 250 g ai/ha; 0 to 100 scale where 0 is no effect and 100 is complete control; 13 to 15 d
Summary of the method: (§2)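 Plants at 2-leaf stage flooded to 3 cm above soil, with compounds applied directly to paddy water and that depth maintained. Plants kept in greenhouse 13–15 d. Visual rating versus controls on a 0 (no effect) to 100 (complete control) scale.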

[18] = system: ducksalad (Heteranthera limosa); assay: Test B flooded paddy test; conditions: Flood, 250 g ai/ha; 0 to 100 scale where 0 is no effect and 100 is complete control; 13 to 15 d
Summary of the method: as §2

[19] = system: rice (Oryra sativa); assay: Test B flooded paddy test; conditions: Flood, 250 g ai/ha; 0 to 100 scale where 0 is no effect and 100 is complete control; 13 to 15 d
Summary of the method: as §2

[20] = system: sedge, umbrella (small-flower umbrella sedge, Cyperus difformis); assay: Test B flooded paddy test; conditions: Flood, 250 g ai/ha; 0 to 100 scale where 0 is no effect and 100 is complete control; 13 to 15 d
Summary of the method: as §2

[21] = 125 g ai/ha, Preemergence, visual injury after approximately 10 d, 0 to 100 scale where 0 is no effect and 100 is complete control
[22] = Preemergence, 500 g ai/ha, visual injury approx. 10 d
[23] = 125 g ai/ha, postemergence, visual rating after approx. 10 d, 0 to 100 scale (0 no effect, 100 complete control)
[24] = Postemergence, 500 g ai/ha, 0 to 100 scale where 0 is no effect and 100 is complete control
[25] = 500 g ai/ha, preemergence, 0 to 100 scale, 0 = no effect, 100 = complete control
[26] = 500 g ai/ha, postemergence, visual injury, 0 to 100 scale (0 no effect, 100 complete control), approx. 10 d

| Structure (SMILES) | Plant response rating, Kochia [1, 21] | Plant response rating, Barnyardgrass [2, 21] | Plant response rating, Foxtail, Giant [3, 21] | Plant response rating, Pigweed [4, 21] | Plant response rating, Ragweed [5, 21] | Plant response rating, Ryegrass, Italian [6, 21] | Plant response rating, Galium [7, 23] | Plant response rating, Kochia [8, 23] | Plant response rating, Barnyardgrass [9, 23] | Plant response rating, Blackgrass [10, 23] | Plant response rating, Corn [11, 23] | Plant response rating, Foxtail, Giant [12, 23] | Plant response rating, Pigweed [13, 23] | Plant response rating, Ragweed [14, 23] | Plant response rating, Ryegrass, Italian [15, 23] | Plant response rating, Wheat [16, 23] | Plant response rating, Barnyardgrass [17] | Plant response rating, Ducksalad [18] | Plant response rating, Rice [19] | Plant response rating, Sedge, Umbrella [20] | also measured |
| --- | --- | --- | --- | --- | --- | --- | --- | --- | --- | --- | --- | --- | --- | --- | --- | --- | --- | --- | --- | --- | --- |
| O=C1NCC(c2cccc(C(F)(F)F)c2F)C1C(=O)Nc1cccc(F)c1F (stereo not drawn) [Compound 591] | 30 | 90 | 90 | 0 | 0 | 20 | 40 | 20 | 90 | 50 | 70 | 90 | 20 | 0 | 0 | 50 | 65 | 100 | 35 | 0 | Kochia plant response rating (0 to 100 scale, 0 is no effect, 100 is complete control) [1, 22]: 60; Barnyardgrass plant response rating (0 to 100 scale, 0 is no effect, 100 is complete control) [2, 22]: 90; Foxtail, Giant plant response rating (0 to 100 scale, 0 is no effect, 100 is complete control) [3, 22]: 90; Pigweed plant response rating (0 to 100 scale, 0 is no effect, 100 is complete control) [4, 22]: 40; Ragweed plant response rating (0 to 100 scale, 0 is no effect, 100 is complete control) [5, 22]: 60; Ryegrass, Italian plant response rating (0 to 100 scale, 0 is no effect, 100 is complete control) [6, 22]: 60; Plant response rating, Galium [7, 24]: 50; Plant response rating, Kochia [8, 24]: 60; Plant response rating, Barnyardgrass [9, 24]: 90; Plant response rating, Blackgrass [10, 24]: 60; Plant response rating, Corn [11, 24]: 80; Plant response rating, Foxtail, Giant [12, 24]: 90; Plant response rating, Pigweed [13, 24]: 70; Plant response rating, Ragweed [14, 24]: 30; Plant response rating, Ryegrass, Italian [15, 24]: 70; Plant response rating, Wheat [16, 24]: 60 |
| CN1CC(c2ccc(F)c(C(F)(F)F)c2)C(C(=O)Nc2ccccc2S(C)(=O)=O)C1=O (stereo not drawn) [Compound 612] | 20 | 90 | 90 | 70 | 50 | 50 | 30 | 20 | 70 | 40 | 50 | 70 | 20 | 0 | 20 | 30 | 65 | 100 | 15 | 85 | Plant response rating, Kochia [1, 25]: 20; Plant response rating, Barnyardgrass [2, 25]: 90; Plant response rating, Foxtail, Giant [3, 25]: 90; Plant response rating, Pigweed [4, 25]: 70; Plant response rating, Ragweed [5, 25]: 50; Plant response rating, Ryegrass, Italian [6, 25]: 70; Plant response rating, Galium [7, 24]: 50; Plant response rating, Kochia [8, 24]: 40; Plant response rating, Barnyardgrass [9, 24]: 90; Plant response rating, Blackgrass [10, 24]: 60; Plant response rating, Corn [11, 24]: 90; Plant response rating, Foxtail, Giant [12, 24]: 90; Plant response rating, Pigweed [13, 24]: 50; Plant response rating, Ragweed [14, 24]: 20; Plant response rating, Ryegrass, Italian [15, 24]: 70; Plant response rating, Wheat [16, 24]: 30 |
| CN1CC(c2cccc(OC(F)F)c2)C(C(=O)Nc2ccc(F)cc2F)C1=O (stereo not drawn) [Compound 617] | 70 | 90 | 90 | 90 | 30 | 70 | 60 | 50 | 90 | 40 | 80 | 90 | 30 | 20 | 20 | 50 | 90 | 100 | 10 | 0 | Plant response rating, Kochia [1, 25]: 70; Plant response rating, Barnyardgrass [2, 25]: 90; Plant response rating, Foxtail, Giant [3, 25]: 100; Plant response rating, Pigweed [4, 25]: 90; Plant response rating, Ragweed [5, 25]: 60; Plant response rating, Ryegrass, Italian [6, 25]: 90; Plant response rating, Galium [7, 24]: 60; Plant response rating, Kochia [8, 24]: 60; Plant response rating, Barnyardgrass [9, 24]: 90; Plant response rating, Blackgrass [10, 24]: 60; Plant response rating, Corn [11, 24]: 80; Plant response rating, Foxtail, Giant [12, 24]: 90; Plant response rating, Pigweed [13, 24]: 50; Plant response rating, Ragweed [14, 24]: 50; Plant response rating, Ryegrass, Italian [15, 24]: 50; Plant response rating, Wheat [16, 24]: 60 |
| CN1CC(c2ccc(F)c(F)c2)C(C(=O)Nc2ccccc2S(C)(=O)=O)C1=O (stereo not drawn) [Compound 640] | 50 | 90 | 90 | 80 | 40 | 20 | 40 | 0 | 90 | 0 | 0 | 80 | 0 | 0 | 0 | 0 | 30 | 100 | 25 | 0 | Plant response rating, Kochia [1, 25]: 60; Plant response rating, Barnyardgrass [2, 25]: 90; Plant response rating, Foxtail, Giant [3, 25]: 90; Plant response rating, Pigweed [4, 25]: 90; Plant response rating, Ragweed [5, 25]: 60; Plant response rating, Ryegrass, Italian [6, 25]: 50; Plant response rating, Galium [7, 26]: 50; Plant response rating, Kochia [8, 26]: 40; Plant response rating, Barnyardgrass [9, 26]: 90; Plant response rating, Blackgrass [10, 26]: 50; Plant response rating, Corn [11, 26]: 0; Plant response rating, Foxtail, Giant [12, 26]: 90; Plant response rating, Pigweed [13, 26]: 20; Plant response rating, Ragweed [14, 26]: 0; Plant response rating, Ryegrass, Italian [15, 26]: 0; Plant response rating, Wheat [16, 26]: 50 |
